# Values of other authors, collected in PubChem BioAssay AID1259409 (Chemical Carcinogenesis Research Information System (CCRIS), 2018).
# Where a SMILES comes first, the peptide text is derived from it.
# Test system: rodent chemically induced tumor inhibition, incidence and multiplicity
# Test: CCRIS tumor inhibitor studies
structure (smiles),measurement,setting,value
CC(=O)N[C@@H](CS)C(=O)O,"tumour outcome (control, treated, inhibition, significance)","Carcinogen: 4-(METHYLNITROSAMINO)-1-(3-PYRIDYL)-1-BUTANONE [64091-50-5], Dose [Inhibitor]: 80 MMOL/KG IN DIET FOR 17 WK BEGINNING 1 WK PRIOR TO FIRST CARCINOGEN DOSE (STUDY DURATION: 17 WK), Route [Inhibitor]: ORAL, Species: MOUSE, Strain/Sex: A/J/FEMALE, Target Tissue: Type of Lesion: LUNG: ADENOMA, Dose [Carcinogen]: 10 UMOL ONCE 1 WK POST FIRST INHIBITOR DOSE (STUDY DURATION: 17 WK), Promoter: NONE","100%, 100%, 0%, not significant"
same,"tumour outcome (control, treated, inhibition, significance)","Carcinogen: 4-(METHYLNITROSAMINO)-1-(3-PYRIDYL)-1-BUTANONE [64091-50-5], Dose [Inhibitor]: 80 MMOL/KG IN DIET FOR 53 WK BEGINNING 1 WK PRIOR TO FIRST CARCINOGEN DOSE (STUDY DURATION: 53 WK), Route [Inhibitor]: ORAL, Species: MOUSE, Strain/Sex: A/J/FEMALE, Target Tissue: Type of Lesion: LUNG: ADENOMA OR ADENOCARCINOMA, Dose [Carcinogen]: 10 UMOL ONCE 1 WK POST FIRST INHIBITOR DOSE (STUDY DURATION: 53 WK), Promoter: NONE","100%, 93%, 7%, not significant"
same,"tumour outcome (control, treated, inhibition, significance)","Carcinogen: 4-(METHYLNITROSAMINO)-1-(3-PYRIDYL)-1-BUTANONE [64091-50-5], Dose [Inhibitor]: 160 MMOL/KG IN DIET FOR 17 WK BEGINNING 1 WK PRIOR TO FIRST CARCINOGEN DOSE (STUDY DURATION: 17 WK), Route [Inhibitor]: ORAL, Species: MOUSE, Strain/Sex: A/J/FEMALE, Target Tissue: Type of Lesion: LUNG: ADENOMA, Dose [Carcinogen]: 10 UMOL ONCE 1 WK POST FIRST INHIBITOR DOSE (STUDY DURATION: 17 WK), Promoter: NONE","100%, 100%, 0%, not significant"
same,"tumour outcome (control, treated, inhibition, significance)","Carcinogen: 4-(METHYLNITROSAMINO)-1-(3-PYRIDYL)-1-BUTANONE [64091-50-5], Dose [Inhibitor]: 160 MMOL/KG IN DIET FOR 53 WK BEGINNING 1 WK PRIOR TO FIRST CARCINOGEN DOSE (STUDY DURATION: 53 WK), Route [Inhibitor]: ORAL, Species: MOUSE, Strain/Sex: A/J/FEMALE, Target Tissue: Type of Lesion: LUNG: ADENOMA OR ADENOCARCINOMA, Dose [Carcinogen]: 10 UMOL ONCE 1 WK POST FIRST INHIBITOR DOSE (STUDY DURATION: 53 WK), Promoter: NONE","100%, 97%, 3%, not significant"
same,"tumour outcome (control, treated, inhibition, significance)","Carcinogen: 4-(METHYLNITROSAMINO)-1-(3-PYRIDYL)-1-BUTANONE, 64091-91-4, Dose [Inhibitor]: 0, 6528 PPM IN DIET FOR 22 WK BEGINNING 1 WK PRIOR TO CARCINOGEN TREATMENT (STUDY DURATION: 98 WK), Route [Inhibitor]: ORAL, Species: RAT, Strain/Sex: F344/MALE, Target Tissue: Type of Lesion: LUNG: TUMOR, Dose [Carcinogen]: 1.5 MG/KG BW 3/WK FOR 20 WK, Promoter: NONE USED","22/33 (67%), 22/36 (61%), 9%, not significant"
same,"tumour outcome (control, treated, inhibition, significance)","Carcinogen: 4-(METHYLNITROSAMINO)-1-(3-PYRIDYL)-1-BUTANONE, 64091-91-4, Dose [Inhibitor]: 0, 6528 PPM IN DIET FOR 22 WK BEGINNING 1 WK PRIOR TO CARCINOGEN TREATMENT (STUDY DURATION: 98 WK), Route [Inhibitor]: ORAL, Species: RAT, Strain/Sex: F344/MALE, Target Tissue: Type of Lesion: NASAL CAVITY: TUMOR, Dose [Carcinogen]: 1.5 MG/KG BW 3/WK FOR 20 WK, Promoter: NONE USED","28/36 (78%), 22/36 (61%), 22%, not significant"
same,"tumour outcome (control, treated, inhibition, significance)","Carcinogen: 4-(METHYLNITROSAMINO)-1-(3-PYRIDYL)-1-BUTANONE, 64091-91-4, Dose [Inhibitor]: 0, 13056 PPM IN DIET FOR 22 WK BEGINNING 1 WK PRIOR TO CARCINOGEN DOSE (STUDY DURATION: 98 WK), Route [Inhibitor]: ORAL, Species: RAT, Strain/Sex: F344/MALE, Target Tissue: Type of Lesion: NASAL CAVITY: TUMOR, Dose [Carcinogen]: 1.5 MG/KG BW 3/WK FOR 20 WK, Promoter: NONE USED","28/36 (78%), 17/36 (47%), 40%, not significant"
same,"tumour outcome (control, treated, inhibition, significance)","Carcinogen: 4-(METHYLNITROSAMINO)-1-(3-PYRIDYL)-1-BUTANONE, 64091-91-4, Dose [Inhibitor]: 0, 13056 PPM IN DIET FOR 22 WK BEGINNING 1 WK PRIOR TO CARCINOGEN TREATMENT (STUDY DURATION: 98 WK), Route [Inhibitor]: ORAL, Species: RAT, Strain/Sex: F344/MALE, Target Tissue: Type of Lesion: LUNG: TUMOR, Dose [Carcinogen]: 1.5 MG/KG BW 3/WK FOR 20 WK, Promoter: NONE USED","22/33 (67%), 21/36 (58%), 13%, not significant"
same,"tumour outcome (control, treated, inhibition, significance)","Carcinogen: 7,12-DIMETHYLBENZ[A]ANTHRACENE, 57-97-6, Dose [Inhibitor]: 0, 4000 PPM IN DIET FOR DURATION OF STUDY BEGINNING 1 WK PRIOR TO CARCINOGEN DOSE (STUDY DURATION: 107 D), Route [Inhibitor]: ORAL, Species: RAT, Strain/Sex: SPRAGUE-DAWLEY/FEMALE, Target Tissue: Type of Lesion: MAMMARY GLAND: ADENOCARCINOMA, Dose [Carcinogen]: 12 MG ONCE, Promoter: NONE USED","92%, 88%, 4%, not significant"
same,"tumour outcome (control, treated, inhibition, significance)","Carcinogen: 7,12-DIMETHYLBENZ[A]ANTHRACENE, 57-97-6, Dose [Inhibitor]: 0, 8000 PPM IN DIET FOR DURATION OF STUDY BEGINNING 1 WK PRIOR TO CARCINOGEN DOSE (STUDY DURATION: 107 D), Route [Inhibitor]: ORAL, Species: RAT, Strain/Sex: SPRAGUE-DAWLEY/FEMALE, Target Tissue: Type of Lesion: MAMMARY GLAND: ADENOCARCINOMA, Dose [Carcinogen]: 12 MG ONCE, Promoter: NONE USED","92%, 92%, 0%, not significant"
same,"tumour outcome (control, treated, inhibition, significance)","Carcinogen: AZOXYMETHANE, 25843-45-2, Dose [Inhibitor]: 0, 600 PPM IN DIET BEGINNING 2 WK PRIOR TO CARCINOGEN TREATMENT AND CONTINUING FOR DURATION OF STUDY (STUDY DURATION: 56, Route [Inhibitor]: ORAL, Species: RAT, Strain/Sex: F344/MALE, Target Tissue: Type of Lesion: COLON: INVASIVE ADENOCARCINOMA, Dose [Carcinogen]: 15 MG/KG 1/WK FOR 2 WK, Promoter: NONE USED","34%, 22%, 35%, not significant"
same,"tumour outcome (control, treated, inhibition, significance)","Carcinogen: AZOXYMETHANE, 25843-45-2, Dose [Inhibitor]: 0, 600 PPM IN DIET BEGINNING 2 WK PRIOR TO CARCINOGEN TREATMENT AND CONTINUING FOR DURATION OF STUDY (STUDY DURATION: 56, Route [Inhibitor]: ORAL, Species: RAT, Strain/Sex: F344/MALE, Target Tissue: Type of Lesion: COLON: NONINVASIVE ADENOCARCINOMA, Dose [Carcinogen]: 15 MG/KG 1/WK FOR 2 WK, Promoter: NONE USED","53%, 44%, 17%, not significant"
same,"tumour outcome (control, treated, inhibition, significance)","Carcinogen: AZOXYMETHANE, 25843-45-2, Dose [Inhibitor]: 0, 1200 PPM IN DIET BEGINNING 2 WK PRIOR TO CARCINOGEN TREATMENT AND CONTINUING FOR DURATION OF STUDY (STUDY DURATION: 5, Route [Inhibitor]: ORAL, Species: RAT, Strain/Sex: F344/MALE, Target Tissue: Type of Lesion: COLON: INVASIVE ADENOCARCINOMA, Dose [Carcinogen]: 15 MG/KG 1/WK FOR 2 WK, Promoter: NONE USED","34%, 19%, 44%, not significant"
same,"tumour outcome (control, treated, inhibition, significance)","Carcinogen: AZOXYMETHANE, 25843-45-2, Dose [Inhibitor]: 0, 1200 PPM IN DIET BEGINNING 2 WK PRIOR TO CARCINOGEN TREATMENT AND CONTINUING FOR DURATION OF STUDY (STUDY DURATION: 5, Route [Inhibitor]: ORAL, Species: RAT, Strain/Sex: F344/MALE, Target Tissue: Type of Lesion: COLON: NONINVASIVE ADENOCARCINOMA, Dose [Carcinogen]: 15 MG/KG 1/WK FOR 2 WK, Promoter: NONE USED","53%, 42%, 21%, not significant"
same,"tumour outcome (control, treated, inhibition, significance)","Carcinogen: DIETHYLNITROSAMINE, 55-18-5, Dose [Inhibitor]: 0, 30 MG/KG BW BY INTRAPERITONEAL INJECTION ON DAYS 13, 14 AND 15 OF AGE THEN 2 G/KG DIET FROM 21 TO 161 DAYS OF AGE (ST, Route [Inhibitor]: INTRAPERITONEAL, ORAL, Species: MOUSE, Strain/Sex: C3H/MALE, Target Tissue: Type of Lesion: LIVER: ADENOMA, Dose [Carcinogen]: 4 MG/KG IN TRICAPRYLIN ONCE ON DAY 15 OF AGE, Promoter: NONE USED","100%, 100%, 0%, not significant"
CC1=CCC(C(C)(O)CO)CC1 (stereo not drawn),"tumour outcome (control, treated, inhibition, significance)","Carcinogen: 7,12-DIMETHYLBENZ[A]ANTHRACENE, 57-97-6, Dose [Inhibitor]: 0, 1% IN DIET FOR 3 WK BEGINNING 2 WK PRIOR TO CARCINOGEN DOSE (STUDY DURATION: 20 WK), Route [Inhibitor]: ORAL, Species: RAT, Strain/Sex: WISTAR/FEMALE, Target Tissue: Type of Lesion: MAMMARY GLAND: CARCINOMA, Dose [Carcinogen]: 50 MG/KG IN SESAME OIL ONCE, Promoter: NONE USED","98%, 84%, 14%, not significant"
O=S(=O)(O)c1ccccc1,"tumour outcome (control, treated, inhibition, significance)","Carcinogen: BETA-PROPIOLACTONE, 57-57-8, Dose [Inhibitor]: 40 UMOL IN 0.2 ML WATER 5 MIN PRIOR TO EACH CARCINOGEN DOSE (STUDY DURATION: 26 WK), Route [Inhibitor]: GAVAGE, Species: MOUSE, Strain/Sex: STRAIN-A/FEMALE, Target Tissue: Type of Lesion: FORESTOMACH: PAPILLOMA, Dose [Carcinogen]: 28 UMOL IN 0.1 ML WATER 2/WK FOR 10 WK, Promoter: NONE USED","100%, 100%, 0%, not significant"
N[C@@H](CCC(=O)O)C(=O)N[C@@H](Cc1c[nH]c2ccccc12)C(=O)O (H-Glu-Trp-OH),"tumour outcome (control, treated, inhibition, significance)","Carcinogen: NONE, Dose [Inhibitor]: 5 UG 1X/D 5 D/WK FOR 12 MONTHS (STUDY DURATION: 1200 D), Route [Inhibitor]: SUBCUTANEOUS, Species: RAT, Strain/Sex: LIO/FEMALE, Target Tissue: Type of Lesion: TUMORS","12/31 (38.7%), 10/40 (25.0%), 35%, not significant"
